Results reported in US20050203117A1, “Treating allergic and inflammatory conditions” (priority 2002, published 2005).

Assay: in vivo studies of allergic bronchospasm and cough

## Clc1ccc2c(c1)CCc1cccnc1C2=C1CCNCC1 [desloratadine]
  effect on allergic bronchospasm and cough: inhibitory effect
